Test results from US12492173B2, “Herbicidal substituted N-tetrazolyl aryl carboxamides” (Bayer Aktiengesellschaft, priority 2019, dated 2025).

What was measured:
Assay type in all cases: in vivo
Matricaria inodora = assay: Pre-emergence herbicidal action, MATIN; set-up: key to Herbicidal action against MATIN: % activity: 100 = plants have died, 0 = like control plants; settings: for herbicidal activity MATIN: scored visually after 3 weeks vs untreated controls (100% = plants have died)
Summary of the method: (§1)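 Pre-emergence, sandy loam soil; WP/EC formulation applied to covering soil surface, 600–800 l/ha water + 0.2% wetter; greenhouse, 3 wk; visual % damage vs untreated (0–100%).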

Stellaria media [1] = assay: Pre-emergence herbicidal action, STEME; settings: dosage 320 g/ha; for herbicidal activity STEME: scored visually after 3 weeks vs untreated controls (100% = plants have died)
Summary of the method: as §1

Pharbitis purpurea = assay: Post-emergence herbicidal action, PHBPU
Summary of the method: (§2)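 Values are visual estimates of herbicidal action, from 0% (as untreated) to 100% (dead), made about 3 weeks after plants at one-leaf stage in sandy loam were sprayed with the formulated compound.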

Stellaria media [2] = assay: Post-emergence herbicidal action, STEME; set-up: key: % herbicidal action vs untreated; 100 = plants died, 0 = like control
Summary of the method: as §2

Abutilon theophrasti = assay: Pre-emergence herbicidal action, ABUTH; settings: dosage 320 g/ha, scored visually after 3 weeks vs untreated controls (100% = plants have died)
Summary of the method: as §1

Polygonum convolvulus = assay: Pre-emergence herbicidal action, POLCO; settings: for herbicidal activity POLCO: dosage 320 g/ha, scored visually after 3 weeks vs untreated controls (100% = plants have died)
Summary of the method: as §1

Setaria viridis = assay: Pre-emergence herbicidal action, SETVI; settings: dosage 320 g/ha, scored visually after 3 weeks vs untreated controls (100% = plants have died)
Summary of the method: as §1

[3] = comparative experiment, 20 g of a.i./ha

| Structure (SMILES) | herbicidal action MATIN (Matricaria inodora; dosage 320 g/ha) | herbicidal action STEME (Stellaria media [1]) | herbicidal action PHBPU (Pharbitis purpurea; Dosage 80 g/ha) | herbicidal action STEME (Stellaria media [2]; Dosage 80 g/ha) | herbicidal activity ABUTH (Abutilon theophrasti) | herbicidal activity MATIN (Matricaria inodora; dosage 320 g/ha) | herbicidal activity POLCO (Polygonum convolvulus) | herbicidal activity SETVI (Setaria viridis) | herbicidal activity STEME (Stellaria media [1]) | Herbicidal action against POLCO (Polygonum convolvulus; [3]) | Herbicidal action against PHBPU (Pharbitis purpurea; post-emergence, dosage 80 g/ha) | Herbicidal action against STEME (Stellaria media [2]; post-emergence, dosage 80 g/ha) | herbicidal action PHBPU (Pharbitis purpurea; post-emergence, dosage 80 g/ha) | herbicidal action STEME (Stellaria media [2]; post-emergence, dosage 80 g/ha) | Herbicidal action against MATIN (Matricaria inodora; [3]) | Herbicidal action against PHBPU (Pharbitis purpurea; comparative experiment, post-emergence, 5 g of a.i./ha) |
| --- | --- | --- | --- | --- | --- | --- | --- | --- | --- | --- | --- | --- | --- | --- | --- | --- |
| CCn1nnnc1NC(=O)c1ccc(S(C)(=O)=O)c(CS(C)(=O)=O)c1C [Example 2-39] | 100% | 100% | 90 | 100 | – | – | – | – | – | – | – | – | – | – | – | – |
| CSCc1c(C(F)F)ccc(C(=O)Nc2nnnn2C)c1C [Example 1-107, 4-(difluoromethyl)-2-methyl-3-[(methylsulfanyl)methyl]-N-(1-methyl-1H-tetrazol-5-yl)benzamide] | – | – | 80 | 100 | 100% | 100% | 80% | 100% | 90% | – | – | – | – | – | – | – |
| Cn1nnnc1NC(=O)c1ccc(C(F)(F)F)c(CS(C)(=O)=O)c1F [Example 1-244] | – | – | 100 | 100 | 100% | 100% | – | 100% | 90% | – | – | – | – | – | – | – |
| COc1c(C(=O)Nc2nnnn2C)ccc(C(F)(F)F)c1CSC [Example 1-134] | – | – | 100 | 100 | 100% | 100% | 80% | 100% | – | 30 | 90 | 90 | – | – | – | – |
| CCn1nnnc1NC(=O)c1ccc(C(F)(F)F)c(CSC)c1Br [Example 2-380] | – | – | – | – | 100% | 100% | 90% | 100% | 80% | – | – | – | 90% | 100% | – | – |
| Cc1c(C(=O)Nc2nnnn2C)ccc(C(F)F)c1CS(C)(=O)=O [Example 1-109] | – | – | 100 | 100 | 100% | 90% | 90% | 100% | – | – | – | – | – | – | – | – |
| CCCn1nnnc1NC(=O)c1ccc(C(F)(F)F)c(CSCC)c1Br [Example 3-383] | – | – | 90 | 100 | 100% | 100% | 90% | 100% | 100% | – | – | – | – | – | – | – |
| Cn1nnnc1NC(=O)c1ccc(C(F)(F)F)c(CS(C)(=O)=O)c1Br [Example 1-382, 2-bromo-3-[(methylsulfonyl)methyl]-N-(1-methyl-1H-tetrazol-5-yl)-4-(trifluoromethyl)benzamide] | – | – | 100 | 100 | 100% | 100% | 90% | 100% | 90% | – | – | – | – | – | – | – |
| CCn1nnnc1NC(=O)c1ccc(C(F)(F)F)c(CS(C)(=O)=O)c1SC [Example 2-163] | – | – | 90 | 100 | 100% | 100% | 100% | 100% | 90% | – | – | – | – | – | – | – |
| CCCn1nnnc1NC(=O)c1ccc(C(F)(F)F)c(CSC)c1Br [Example 3-380] | – | – | 90 | 100 | 100% | 100% | 80% | 100% | – | – | – | – | – | – | – | – |
| Cn1nnnc1NC(=O)c1ccc(C(F)(F)F)c(C[S+](C)[O-])c1Cl (racemic) [Example 1-297] | – | – | – | – | 100% | 100% | – | 100% | 90% | – | – | – | 100% | 100% | 100 | 80 |
| Cn1nnnc1NC(=O)c1ccc(C(F)(F)F)c(C[S+](C)[O-])c1F (stereo not shown) [Example 1-243] | – | – | 100 | 100 | 100% | 100% | – | 100% | 90% | – | – | – | – | – | – | – |
| CCCn1nnnc1NC(=O)c1ccc(C(F)(F)F)c(C[S+](C)[O-])c1Cl (stereo not shown) [Example 3-297] | – | – | – | – | 100% | 100% | – | 100% | 100% | – | – | – | 90% | 100% | – | – |
| CCSCc1c(C(F)(F)F)ccc(C(=O)Nc2nnnn2C)c1C [Example 1-86] | – | – | – | – | 100% | 100% | 100% | 100% | – | – | – | – | 90% | 100% | – | – |
| CSCc1c(C(F)(F)F)ccc(C(=O)Nc2nnnn2C)c1SC [Example 1-161] | – | – | 90 | 100 | 100% | 100% | – | 100% | 100% | – | – | – | – | – | – | – |
| CCCn1nnnc1NC(=O)c1ccc(C(F)(F)F)c(CS(=O)(=O)CC)c1C [Example 3-88] | – | – | 90 | 100 | 100% | 100% | – | 100% | 80% | – | – | – | – | – | – | – |
| CCn1nnnc1NC(=O)c1ccc(C)c(CSC)c1Cl [Example 2-287] | – | – | 90 | 100 | – | 100% | – | 90% | 80% | – | – | – | – | – | – | – |
| Cn1nnnc1NC(=O)c1ccc(C(F)(F)F)c(CS(C)(=O)=O)c1Cl [Example 1-298] | – | – | – | – | 100% | 100% | – | 100% | 100% | – | – | – | 100% | 100% | – | – |
| CSCc1c(C(F)(F)F)ccc(C(=O)Nc2nnnn2C)c1Br [Example 1-380] | – | – | – | – | 100% | 100% | – | 100% | 90% | – | – | – | 90% | 100% | – | – |
| CSCc1c(C(F)(F)F)ccc(C(=O)Nc2nnnn2C)c1Cl [Example 1-296] | – | – | – | – | 100% | 100% | – | 100% | 100% | – | – | – | 100% | 100% | – | – |
| CCn1nnnc1NC(=O)c1ccc(C(F)(F)F)c(C[S+](C)[O-])c1Br (stereo not shown) [Example 2-381] | – | – | – | – | 100% | 100% | – | 100% | 90% | – | – | – | 100% | 100% | – | – |
